Here are results for 26 compounds from article PMC8820799, “Angiogenesis and anti-leukaemia activity of novel indole derivatives as potent colchicine binding site inhibitors” (Journal of Enzyme Inhibition and Medicinal Chemistry, 2022).

Bounds are passed on as bounds.

What is called melting point is the temperature, or range, at which the solid turns liquid. In general, IC50 refers to the point on the concentration scale where inhibition reaches its midpoint.

The target in data set [1] is T1, Tubulin isolated from porcine brain tissue (Sus scrofa, UniProt P02550+P02554).
T1 construct: purchased Cytoskeleton (Denver, CO), via Beyotime, China; host or cells: porcine brain tissue
Nature of the data set: Tubulin polymerisation assay. The class given is biochemical. The following applies: triplicate, mean ± SD; read-out: Tubulin (tubulin inhibitory polymerisation IC50). On the procedure:
Tubulin polymerisation was determined with the tubulin polymerisation assay kit (Cytoskeleton, Denver, CO which was purchased from Cytoskeleton, Beyotime, China. Tubulin isolated from porcine brain tissue was used in this commercial kit.) It is based on the principal that light is scattered by microtubules to an extent that is proportional to the concentration of the microtubule polymer. Compounds that interact with tubulin will alter the polymerisation of tubulin, and this can be detected using a spectrophotometer. Tubulin polymerisation dynamics was monitored through measuring the change of absorbance at 340 nm every 2 min for 30 min at 37 °C on a spectrophotometer.

T1 sequence (P02554 whole entry): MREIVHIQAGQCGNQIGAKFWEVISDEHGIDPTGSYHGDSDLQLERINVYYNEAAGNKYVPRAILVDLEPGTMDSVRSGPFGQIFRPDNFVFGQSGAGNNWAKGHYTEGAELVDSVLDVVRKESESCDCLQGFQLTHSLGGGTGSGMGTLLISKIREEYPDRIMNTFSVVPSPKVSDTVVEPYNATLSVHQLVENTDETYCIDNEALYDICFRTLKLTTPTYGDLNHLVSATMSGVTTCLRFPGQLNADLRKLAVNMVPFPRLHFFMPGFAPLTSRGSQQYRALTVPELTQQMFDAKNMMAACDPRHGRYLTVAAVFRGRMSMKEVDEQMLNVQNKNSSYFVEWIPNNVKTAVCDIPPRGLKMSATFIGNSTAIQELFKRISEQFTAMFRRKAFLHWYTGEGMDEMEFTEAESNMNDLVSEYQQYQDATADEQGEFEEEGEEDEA
T1 sequence (P02550 whole entry): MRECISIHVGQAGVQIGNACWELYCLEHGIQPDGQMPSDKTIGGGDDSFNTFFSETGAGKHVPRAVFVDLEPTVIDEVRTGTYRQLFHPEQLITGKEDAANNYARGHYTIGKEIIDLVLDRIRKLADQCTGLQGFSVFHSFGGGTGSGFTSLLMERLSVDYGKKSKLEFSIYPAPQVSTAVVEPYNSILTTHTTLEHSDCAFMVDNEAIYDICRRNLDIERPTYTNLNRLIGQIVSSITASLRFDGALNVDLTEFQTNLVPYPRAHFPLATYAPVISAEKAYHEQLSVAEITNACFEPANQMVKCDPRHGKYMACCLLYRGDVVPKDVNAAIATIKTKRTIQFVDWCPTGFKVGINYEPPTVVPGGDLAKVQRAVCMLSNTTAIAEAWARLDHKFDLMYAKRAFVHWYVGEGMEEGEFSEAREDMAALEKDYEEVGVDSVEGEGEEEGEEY

`CCCn1cc(/C=C/C(=O)c2ccc(OC)cc2)c2ccccc21` [Compound 26c, (E)-1–(4-Methoxyphenyl)-3–(1-propyl-1H-indol-3-yl)prop-2-en-1-one] gave a melting point of 161 to 162 °C. Moreover, the IC50 in data set [1] stood at 72.5 ± 1.7 µM.

Turning to `CCn1cc(/C=C/C(=O)c2cccc(Cl)c2)c2ccccc21` [Compound 24b, (E)-1–(3-Chlorophenyl)-3–(1-ethyl-1H-indol-3-yl)prop-2-en-1-one], the melting point is 165 to 168 °C. For the same compound, in data set [1], the IC50 was above 100 µM.

Consider `CCCn1cc(/C=C/C(=O)c2ccccc2)c2ccccc21` [Compound 23c, (E)-1-Phenyl-3–(1-propyl-1H-indol-3-yl)prop-2-en-1-one], for which the melting point was 161 to 162 °C. The IC50 in data set [1] was above 100 µM.

As for `COc1cccc(C(=O)/C=C/c2cn(Cc3ccccc3)c3ccccc23)c1` [Compound 27d, (E)-3–(1-Benzyl-1H-indol-3-yl)-1–(3-methoxyphenyl)prop-2-en-1-one], the melting point fell in the range of 161 to 163 °C. For the same compound, the IC50 in data set [1] was above 100 µM.

`CCCn1cc(/C=C/C(=O)c2cccc(Cl)c2)c2ccccc21` [Compound 24c, (E)-1–(3-Chlorophenyl)-3–(1-propyl-1H-indol-3-yl)prop-2-en-1-one] displayed a melting point of 161 to 162 °C. In addition, the IC50 in data set [1] was above 100 µM.

As for `O=C(/C=C/c1cn(Cc2ccccc2)c2ccccc12)c1cccc(Cl)c1` [Compound 24d, (E)-3–(1-Benzyl-1H-indol-3-yl)-1–(3-chlorophenyl)prop-2-en-1-one], the melting point is 161 to 163 °C. Also, the IC50 in data set [1] was above 100 µM.

`CCCn1cc(/C=C/C(=O)c2ccc(C(F)(F)F)cc2)c2ccccc21` [Compound 28c, (E)-3–(1-Propyl-1H-indol-3-yl)-1–(4-(trifluoromethyl)phenyl)prop-2-en-1-one] came in with a melting point of 161 to 162 °C. The IC50 in data set [1] worked out at 26.8 ± 4.6 µM.

Consider `CCn1cc(/C=C/C(=O)c2ccc(Cl)cc2)c2ccccc21` [Compound 25b, (E)-1–(4-chlorophenyl)-3–(1-ethyl-1H-indol-3-yl)prop-2-en-1-one], for which the melting point lay within 165 to 168 °C. Besides, in data set [1], the IC50 is above 100 µM.

Take `CCn1cc(/C=C/C(=O)c2ccc(C(F)(F)F)cc2)c2ccccc21` [Compound 28b, (E)-3–(1-ethyl-1H-indol-3-yl)-1–(4-(trifluoromethyl)phenyl)prop-2-en-1-one]: the melting point is 165 to 168 °C. Also, the IC50 in data set [1] is above 100 µM.

In turn, `CCn1cc(/C=C/C(=O)c2cccc(OC)c2)c2ccccc21` [Compound 27b, (E)-3–(1-Ethyl-1H-indol-3-yl)-1–(3-methoxyphenyl)prop-2-en-1-one] yielded a melting point of 165 to 166 °C. Also, the IC50 in data set [1] was above 100 µM.

As to `Cn1cc(/C=C/C(=O)c2ccccc2)c2ccccc21` [Compound 23a, (E)-3–(1-Methyl-1H-indol-3-yl)-1-phenylprop-2-en-1-one], the IC50 in data set [1] is above 100 µM.

With `O=C(/C=C/c1cn(Cc2ccccc2)c2ccccc12)c1ccc(Cl)cc1` [Compound 25d, (E)-3–(1-benzyl-1H-indol-3-yl)-1–(4-chlorophenyl)prop-2-en-1-one], the melting point is 163 to 165 °C. The concentration for half-maximal inhibition (IC50) in data set [1] is above 100 µM.

As to `Cn1cc(/C=C/C(=O)c2ccc(C(F)(F)F)cc2)c2ccccc21` [Compound 28a, (E)-3–(1-Methyl-1H-indol-3-yl)-1–(4-(trifluoromethyl)phenyl)prop-2-en-1-one], the melting point was in the range of 160 to 162 °C. Moreover, the IC50 in data set [1] was above 100 µM.

`COc1ccc(C(=O)/C=C/c2cn(Cc3ccccc3)c3ccccc23)cc1` [Compound 26d, (E)-3–(1-Benzyl-1H-indol-3-yl)-1–(4-methoxyphenyl)prop-2-en-1-one] returned a melting point of 161 to 163 °C. Also, in data set [1], the IC50 was determined as 75.8 ± 2.6 µM.

Consider `COc1ccc(C(=O)/C=C/c2cn(C)c3ccccc23)cc1` [Compound 26a, (E)-1–(4-Methoxyphenyl)-3–(1-methyl-1H-indol-3-yl)prop-2-en-1-one], for which the melting point was 160 to 162 °C. In addition, in data set [1], the IC50 amounted to 85.7 ± 2.5 µM.

Take `CCCn1cc(/C=C/C(=O)c2ccc(Cl)cc2)c2ccccc21` [Compound 25c, (E)-1–(4-chlorophenyl)-3–(1-propyl-1H-indol-3-yl)prop-2-en-1-one]: the melting point lay within 160 to 162 °C. Also, the IC50 in data set [1] was above 100 µM.

Turning to `Cn1cc(/C=C/C(=O)c2ccc(Cl)cc2)c2ccccc21` [Compound 25a, (E)-1–(4-chlorophenyl)-3–(1-methyl-1H-indol-3-yl)prop-2-en-1-one], the melting point lay in the range of 171 to 173 °C. Also, the IC50 in data set [1] is above 100 µM.

Compound `COc1cccc(C(=O)/C=C/c2cn(C)c3ccccc23)c1` [Compound 27a, (E)-1–(3-Methoxyphenyl)-3–(1-methyl-1H-indol-3-yl)prop-2-en-1-one] showed a melting point of 161 to 162 °C. The IC50 in data set [1] is above 100 µM.

`O=C(/C=C/c1cn(S(=O)(=O)c2ccccc2)c2ccccc12)c1ccccc1` [Compound 23e, (E)-1-Phenyl-3–(1-(phenylsulfonyl)-1H-indol-3-yl)prop-2-en-1-one] displayed a melting point of 165 to 168 °C. For the same compound, in data set [1], the IC50 is above 100 µM.

As to `Cn1cc(/C=C/C(=O)c2cccc(Cl)c2)c2ccccc21` [Compound 24a, (E)-1–(3-Chlorophenyl)-3–(1-methyl-1H-indol-3-yl)prop-2-en-1-one], the melting point lay within 173 to 175 °C. For the same compound, the IC50 in data set [1] was above 100 µM.

Turning to `CCn1cc(/C=C/C(=O)c2ccc(OC)cc2)c2ccccc21` [Compound 26b, (E)-3–(1-Ethyl-1H-indol-3-yl)-1–(4-methoxyphenyl)prop-2-en-1-one], the melting point was in the range of 165 to 168 °C. Also, the IC50 in data set [1] turned out to be 78.8 ± 1.3 µM.

`CCCn1cc(/C=C/C(=O)c2cc(OC)c(OC)c(OC)c2)c2ccccc21` [Compound 29c, (E)-3–(1-Propyl-1H-indol-3-yl)-1–(3,4,5-trimethoxyphenyl)prop-2-en-1-one] came in with a melting point of 162 to 164 °C. The IC50 in data set [1] was above 100 µM.

Take `O=C(/C=C/c1cn(S(=O)(=O)c2ccccc2)c2ccccc12)c1cccc(Cl)c1` [Compound 24e, (E)-1–(3-Chlorophenyl)-3–(1-(phenylsulfonyl)-1H-indol-3-yl)prop-2-en-1-one]: the melting point fell in the range of 165 to 168 °C. In addition, the IC50 in data set [1] came to 92.3 ± 2.4 µM.

`O=C(/C=C/c1cn(Cc2ccccc2)c2ccccc12)c1ccc(C(F)(F)F)cc1` [Compound 28d, (E)-3–(1-Benzyl-1H-indol-3-yl)-1–(4-(trifluoromethyl)phenyl)prop-2-en-1-one]: the melting point lay in the range of 160 to 163 °C. Besides, in data set [1], the IC50 was above 100 µM.

Turning to `COc1cccc(C(=O)/C=C/c2cn(S(=O)(=O)c3ccccc3)c3ccccc23)c1` [Compound 27e, (E)-1–(3-Methoxyphenyl)-3–(1-(phenylsulfonyl)-1H-indol-3-yl)prop-2-en-1-one], the melting point lay within 167 to 168 °C. Moreover, the IC50 in data set [1] stood at 87.2 ± 1.4 µM.

As to `CCn1cc(/C=C/C(=O)c2ccccc2)c2ccccc21` [Compound 23b, (E)-3–(1-Ethyl-1H-indol-3-yl)-1-phenylprop-2-en-1-one], the melting point lay in the range of 165 to 168 °C. Further, the IC50 in data set [1] was above 100 µM.
